Test results reported in patent US7084166B2, “Bis-heterocyclic compounds with antitumour and chemosensitising activity” (Sigma-Tau Industrie Farmaceutichee Riunite S.p.A., priority 2000, dated 2006).
Read-outs that look alike come from different tables or passages of the source.

Key:
Assay type in all cases: cell-based
[1] = test system: NB4 cells (acute promyelocytic leukaemia); assay: Cell differentiation by reduction of nitroblue tetrazolium (NBT), with suboptimal ATRA; conditions: for AC50 / fold induction (differentiation, compound + ATRA vs ATRA alone): combined with suboptimal doses of ATRA, NBT; for AC50: 3 days, read-out: AC50 (concentration at which the tested compound induces 50% of cell differentiation)
Experimental: The first line used was the NB4 cell line, bearing the t(15;17) chromosomal translocation which generates the fusion protein PML/RARα. This line is very sensitive to the differentiative action of pharmacological doses of ATRA (10^−7–10^−6 M).
(§1) The HL60 and NB4 cells were seeded at a density of 150,000 cells/ml in RPMI 1640 medium containing 10% foetal calf serum, and were treated with the tested compounds in the presence and absence of suboptimal doses of ATRA (5–10 nM for NB4 and 0.5 μM for HL60, respectively) in the dark, and returned to the incubator for 3 days without ever replacing the culture medium.
(§2) To analyse the differentiative effect of the tested compounds vs ATRA, on the third day of treatment 500,000 viable cells were harvested from each sample, centrifuged for 10 minutes at 1.000 rpm and resuspended in 1 ml of RPMI 1640 medium containing 10% foetal calf serum, 1 mg/ml of nitroblue tetrazolium (NBT) and 100 ng of PMA (phorbol 12-myristate 13-acetate).
(§3) The cells thus resuspended were incubated in the dark at 37° C. for 60 minutes.
(§4) At the end of the incubation, the cell suspension was centrifuged for 10 minutes at 10,000 rpm; the pellet obtained was then resuspended in 1 ml of PBS containing 10% Triton X-100 and sonicated to lysis.
(§5) Spectrophotometric readings of the samples were then taken at a wavelength of 540 nm: samples containing differentiated cells shifted towards a violet colour, whereas control samples and/or samples with non-differentiated cells were colourless or, at any rate, much less intensely coloured.
(§6) The AC50 (Activating Concentration) is the concentration at which the tested compound induces 50% of cell differentiation.
(§7) Fold Induction is the increase in the differentiation value of the cell sample treated with the tested compound +ATRA vs the value of the cell sample treated with ATRA alone. This value provides an indication of the ability (potency) of the tested compound to enhance ATRA induced cell differentiation.

[2] = test system: NB4 cells (acute promyelocytic leukaemia); assay: Flow cytofluorimetric analysis of cell cycle; design: APOPTOSIS: unit not given here; conditions: for effect of the compound alone on cell cycle and apoptosis (in words): compound alone (ST 1346: high doses)
Experimental: The first line used was the NB4 cell line, bearing the t(15;17) chromosomal translocation which generates the fusion protein PML/RARα.
(§8) To assess the effect of the tested compounds on the various phases of the cell cycle, on the third day of treatment 500,000 cells were harvested, centrifuged at 1,000 rpm for 10 minutes, washed twice in PBS w/o (PBS without calcium and magnesium) and fixed in a solution of 50% PBS w/o+50% methanol/acetone (1:4 v/v) for at least 1 hour; the cells were then centrifuged as described, washed in PBS w/o and centrifuged again.
(§9) 200 μl of propidium iodide 100 μg/ml and 200 μl of RNase 150 kU/mg were then added to the cell pellet.
(§10) After a 30-min incubation in the dark at room temperature, the samples were analysed by flow cytofluirometry.

[3] = test system: HL60 cells (acute promyelocytic leukaemia); assay: Flow cytofluorimetric analysis of cell cycle; conditions: day 3
Experimental: (§11) The second line used was the HL60 cell line which responds to ATRA (but is less sensitive than the NB4 cell line).
as §1, §8, §9, §10

[4] = test system: HL60 cells (acute promyelocytic leukaemia); assay: Cell differentiation by reduction of nitroblue tetrazolium (NBT), with suboptimal ATRA; conditions: combined with suboptimal doses of ATRA; for AC50: Homo sapiens, HL-60, 72 h, 3 days, read-out: AC50 (concentration at which the tested compound induces 50% of cell differentiation)
Experimental: as §11, §1, §2, §3, §4, §5, §6, §7

[5] = compound 1 μM + ATRA 0.01 μM, day 3
[6] = compound 5 μM + ATRA 0.01 μM, day 3
[7] = compound 10 μM + ATRA 0.01 μM, day 3
[8] = compound 50 μM + ATRA 0.01 μM, day 3
[9] = compound 1 μM + ATRA 0.01 μM, day 3, listed as ST1346
[10] = compound 5 μM + ATRA 0.01 μM, day 3, listed as ST1346
[11] = compound 10 μM + ATRA 0.01 μM, day 3, listed as ST1346
[12] = compound 50 μM + ATRA 0.01 μM, day 3, listed as ST1346

In the case of `OCCCC(c1c[nH]c2ccccc12)c1c[nH]c2ccccc12` [ST 1707, 1,1-di(indol-3-yl)-4-hydroxy-butane], the AC50 ([1]; Homo sapiens, NB-4, 72 h) is reported as 8.3 ± 0.05 µM, the “fold induction (differentiation, compound + ATRA vs ATRA alone)” value [1] is reported as 2.5 and the APOPTOSIS [2, 5] is reported as 17.0. It also gave a G0/G1 [2, 5] of 65.4, a G2/M [2, 5] of 11.8 and an S [2, 5] of 22.8. The APOPTOSIS [2, 6] was 14.0, the G0/G1 [2, 6] was 69.8 and the G2/M [2, 6] was 11.3. For the same compound, the S [2, 6] was 18.9, the APOPTOSIS [2, 7] was 13.0 and the G0/G1 [2, 7] was 70.4. For the same compound, the G2/M [2, 7] was 11.5, the S [2, 7] was 18.1 and the APOPTOSIS [2, 8] was 11.5. The G0/G1 [2, 8] was 80.6, the G2/M [2, 8] was 9.0 and the S [2, 8] was 10.4. The APOPTOSIS ([2]; compound alone 1 μM, day 3) was 17.0, the G0/G1 ([2]; compound alone 1 μM, day 3) was 51.7 and the G2/M ([2]; compound alone 1 μM, day 3) was 10.1. For the same compound, the S ([2]; compound alone 1 μM, day 3) was 38.2, the APOPTOSIS ([2]; compound alone 5 μM, day 3) was 19.5 and the G0/G1 ([2]; compound alone 5 μM, day 3) was 52.5. The G2/M ([2]; compound alone 5 μM, day 3) was 11.1, the S ([2]; compound alone 5 μM, day 3) was 36.4 and the APOPTOSIS ([2]; compound alone 10 μM, day 3) was 17.5. For the same compound, the G0/G1 ([2]; compound alone 10 μM, day 3) was 52.2, the G2/M ([2]; compound alone 10 μM, day 3) was 10.8 and the S ([2]; compound alone 10 μM, day 3) was 37.0. For the same compound, the APOPTOSIS ([2]; compound alone 50 μM, day 3) was 17.0, the G0/G1 ([2]; compound alone 50 μM, day 3) was 52.0 and the G2/M ([2]; compound alone 50 μM, day 3) was 12.0. The S ([2]; compound alone 50 μM, day 3) was 36.0 and the “effect of the compound alone on cell cycle and apoptosis (in words)” value [2] was “does not induce apoptosis”.

For `O=C(O)CCC(c1c[nH]c2ccccc12)c1c[nH]c2ccccc12` [ST 1961, 4,4-di-(1H-indolyl-)butanoic acid], the AC50 [1] was 6.6 ± 2 µM, the “fold induction (differentiation, compound + ATRA vs ATRA alone)” value [1] was 1.4 and the APOPTOSIS ([2]; compound alone 1 μM, day 3) was 18.5. The G0/G1 ([2]; compound alone 1 μM, day 3) was 47.5, the G2/M ([2]; compound alone 1 μM, day 3) was 15.6 and the S ([2]; compound alone 1 μM, day 3) was 36.9. It also gave an APOPTOSIS ([2]; compound alone 5 μM, day 3) of 24.0, a G0/G1 ([2]; compound alone 5 μM, day 3) of 49.7 and a G2/M ([2]; compound alone 5 μM, day 3) of 13.0. The S ([2]; compound alone 5 μM, day 3) was 37.3, the APOPTOSIS ([2]; compound alone 10 μM, day 3) was 24.0 and the G0/G1 ([2]; compound alone 10 μM, day 3) was 48.4. The G2/M ([2]; compound alone 10 μM, day 3) was 14.1, the S ([2]; compound alone 10 μM, day 3) was 37.5 and the APOPTOSIS ([2]; compound alone 50 μM, day 3) was 24.0. The G0/G1 ([2]; compound alone 50 μM, day 3) was 56.3, the G2/M ([2]; compound alone 50 μM, day 3) was 14.0 and the S ([2]; compound alone 50 μM, day 3) was 29.7.

For `Cn1cc(C(CCCCO)c2cn(C)c3ccccc23)c2ccccc21` [ST 1974, 5,5-bis-(1-methyl-1H-indol-3-yl)-1 Pentanol], the G0/G1 ([3]; compound 1 μM + ATRA 0.5 μM) was 62.0, the G2/M ([3]; compound 1 μM + ATRA 0.5 μM) was 11.7 and the S ([3]; compound 1 μM + ATRA 0.5 μM) was 26.3. For the same compound, the G0/G1 ([3]; compound 5 μM + ATRA 0.5 μM) was 63.8, the G2/M ([3]; compound 5 μM + ATRA 0.5 μM) was 10.5 and the S ([3]; compound 5 μM + ATRA 0.5 μM) was 25.7. The G0/G1 ([3]; compound 10 μM + ATRA 0.5 μM) was 65.4, the G2/M ([3]; compound 10 μM + ATRA 0.5 μM) was 10.5 and the S ([3]; compound 10 μM + ATRA 0.5 μM) was 24.1. It also gave a G0/G1 ([3]; compound 50 μM + ATRA 0.5 μM) of 81.8, a G2/M ([3]; compound 50 μM + ATRA 0.5 μM) of 10.6 and an S ([3]; compound 50 μM + ATRA 0.5 μM) of 7.6. For the same compound, the G0/G1 ([3]; compound alone 1 μM) was 58.9, the G2/M ([3]; compound alone 1 μM) was 11.1 and the S ([3]; compound alone 1 μM) was 30. For the same compound, the G0/G1 ([3]; compound alone 5 μM) was 59.3, the G2/M ([3]; compound alone 5 μM) was 11.4 and the S ([3]; compound alone 5 μM) was 29.3. It also gave a G0/G1 ([3]; compound alone 10 μM) of 57.8, a G2/M ([3]; compound alone 10 μM) of 12.2 and an S ([3]; compound alone 10 μM) of 30. The G0/G1 ([3]; compound alone 50 μM) was 67.7, the G2/M ([3]; compound alone 50 μM) was 12.3 and the S ([3]; compound alone 50 μM) was 20. For the same compound, the AC50 [4] was 9.5 ± 2.6 µM, the “fold induction (differentiation, compound + ATRA vs ATRA alone)” value [4] was 1.6 and the AC50 ([1]; Homo sapiens, NB-4, 72 h) was 7.8 ± 2.6 µM. For the same compound, the “fold induction (differentiation, compound + ATRA vs ATRA alone)” value [1] was 1.8.

For `OCCCCC(c1c[nH]c2ccccc12)c1c[nH]c2ccccc12` [ST 1346, 5-hydroxy-1,1-di-(indol-3-yl)-pentane], the AC50 [4] was 14.8 ± 1.6 µM, the “fold induction (differentiation, compound + ATRA vs ATRA alone)” value [4] was 2.7 and the AC50 ([1]; Homo sapiens, NB-4, 72 h) was 1.5 ± 0.5 µM. The “fold induction (differentiation, compound + ATRA vs ATRA alone)” value [1] was 3.0, the “dose reaching maximal effect in sensitising ATRA-induced terminal differentiation” value ([1]; doses 1, 5, 10, 50 μM with suboptimal ATRA) was 10 µM and the APOPTOSIS [2, 5] was 17.5. It also gave a G0/G1 [2, 5] of 57.1, a G2/M [2, 5] of 13.9 and an S [2, 5] of 29.0. It also gave an APOPTOSIS [2, 9] of 14, a G0/G1 [2, 9] of 61.5 and a G2/M [2, 9] of 12.9. For the same compound, the S [2, 9] was 25.6, the APOPTOSIS [2, 6] was 17.0 and the G0/G1 [2, 6] was 58.4. For the same compound, the G2/M [2, 6] was 13.9, the S [2, 6] was 27.7 and the APOPTOSIS [2, 10] was 13.5. The G0/G1 [2, 10] was 58.0, the G2/M [2, 10] was 13.5 and the S [2, 10] was 28.5. For the same compound, the APOPTOSIS [2, 7] was 15.0, the G0/G1 [2, 7] was 58.4 and the G2/M [2, 7] was 13.0. For the same compound, the S [2, 7] was 28.6, the APOPTOSIS [2, 11] was 13 and the G0/G1 [2, 11] was 60.0. The G2/M [2, 11] was 12.6, the S [2, 11] was 27.4 and the APOPTOSIS [2, 8] was 10.0. The G0/G1 [2, 8] was 82.2, the G2/M [2, 8] was 8.0 and the S [2, 8] was 9.8. The APOPTOSIS [2, 12] was 17, the G0/G1 [2, 12] was 84.2 and the G2/M [2, 12] was 6.3. For the same compound, the S [2, 12] was 9.5, the APOPTOSIS ([2]; compound alone 1 μM, day 3) was 23 and the G0/G1 ([2]; compound alone 1 μM, day 3) was 46.9. For the same compound, the G2/M ([2]; compound alone 1 μM, day 3) was 15.7, the S ([2]; compound alone 1 μM, day 3) was 37.4 and the APOPTOSIS ([2]; compound alone 5 μM, day 3) was 24. The G0/G1 ([2]; compound alone 5 μM, day 3) was 47.4, the G2/M ([2]; compound alone 5 μM, day 3) was 13.8 and the S ([2]; compound alone 5 μM, day 3) was 38.8. It also gave an APOPTOSIS ([2]; compound alone 10 μM, day 3) of 23, a G0/G1 ([2]; compound alone 10 μM, day 3) of 50.0 and a G2/M ([2]; compound alone 10 μM, day 3) of 14.7. The S ([2]; compound alone 10 μM, day 3) was 35.3, the APOPTOSIS ([2]; compound alone 50 μM, day 3) was 46 and the G0/G1 ([2]; compound alone 50 μM, day 3) was 59.4. For the same compound, the G2/M ([2]; compound alone 50 μM, day 3) was 7.3, the S ([2]; compound alone 50 μM, day 3) was 33.3 and the “effect of the compound alone on cell cycle and apoptosis (in words)” value [2] was “induce growth arrest (in the G0/G1 phase of the cell cycle) and apoptosis”.
